The record followed here is patent US8575193B2, “N-substituted tetrahydroisoquinoline/isoindoline hydroxamic acid compounds” (4SC AG, priority 2008, dated 2013).

Counter-ions that a name gives are not always drawn.

The target of test [1] is T1, rHDAC6 (Homo sapiens, UniProt Q9UBN7).
T1 construct: FLAG; made in house
T1 sequence (Q9UBN7 1-1215): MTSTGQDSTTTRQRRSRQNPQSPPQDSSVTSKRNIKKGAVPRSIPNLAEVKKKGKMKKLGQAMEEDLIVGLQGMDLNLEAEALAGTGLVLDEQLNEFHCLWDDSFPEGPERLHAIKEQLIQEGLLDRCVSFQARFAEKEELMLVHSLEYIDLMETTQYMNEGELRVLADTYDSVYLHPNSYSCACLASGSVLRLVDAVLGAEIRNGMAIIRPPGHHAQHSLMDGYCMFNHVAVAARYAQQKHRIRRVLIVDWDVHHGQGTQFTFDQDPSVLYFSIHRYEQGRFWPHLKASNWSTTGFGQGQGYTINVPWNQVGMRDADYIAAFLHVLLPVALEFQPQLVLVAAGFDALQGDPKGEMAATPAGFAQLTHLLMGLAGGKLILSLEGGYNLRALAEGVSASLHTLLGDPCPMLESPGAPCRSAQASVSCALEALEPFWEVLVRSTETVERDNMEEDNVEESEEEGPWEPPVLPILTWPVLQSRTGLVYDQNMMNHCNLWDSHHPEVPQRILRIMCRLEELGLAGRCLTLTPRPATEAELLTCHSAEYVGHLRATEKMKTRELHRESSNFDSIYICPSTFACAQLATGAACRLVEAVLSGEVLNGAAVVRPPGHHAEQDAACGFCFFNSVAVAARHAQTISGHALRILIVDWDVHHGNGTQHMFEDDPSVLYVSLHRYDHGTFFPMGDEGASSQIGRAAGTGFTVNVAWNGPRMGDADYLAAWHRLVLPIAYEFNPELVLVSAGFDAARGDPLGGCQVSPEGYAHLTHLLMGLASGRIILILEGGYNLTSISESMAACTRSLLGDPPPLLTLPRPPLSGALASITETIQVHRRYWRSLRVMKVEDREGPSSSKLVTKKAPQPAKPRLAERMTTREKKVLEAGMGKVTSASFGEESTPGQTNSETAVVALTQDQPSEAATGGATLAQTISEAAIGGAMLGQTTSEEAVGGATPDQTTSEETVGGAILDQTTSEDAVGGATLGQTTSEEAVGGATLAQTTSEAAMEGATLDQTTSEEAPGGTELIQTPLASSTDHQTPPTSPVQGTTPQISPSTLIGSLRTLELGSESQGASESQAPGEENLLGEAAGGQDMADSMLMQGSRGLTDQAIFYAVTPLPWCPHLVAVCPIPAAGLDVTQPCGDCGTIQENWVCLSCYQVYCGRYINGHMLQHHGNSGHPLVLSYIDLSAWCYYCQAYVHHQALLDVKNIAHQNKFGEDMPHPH
The test can be described thus: rHDAC6 enzymatic assay (recombinant FLAG-HDAC6). Type of test: biochemical. Particulars: FLAG-HDAC6 from HEK293; 10 μM Ac-NH-GGK(Ac)-AMC, 3 h at 30° C.; read-out: rHDAC6 [pIC50] (converted). From the text: (§1) Human HDAC1 and HDAC6 fused with the FLAG epitope are stably expressed in HEK293 cells while human HDAC3 and HDAC8 fused with the FLAG epitope are overexpressed in baculo-virus infected insect (Sf21) cells. To ensure stability of FLAG-HDAC3 the SMRT protein is co-expressed in the corresponding insect cells. […] FLAG-HDAC3 and FLAG-HDAC8 are also purified by M2-agarose affinity chromatography after mass cultivation of the insect cells and cell lysis.
(§2) The HDAC enzyme activity assay is done as described by Wegener et al. (Chem. & Biol. 10, 61-68, 2003). Briefly 40 μl of a 1:100 dilution (=0.4 μl) nuclear HeLa extract (mixture of class I and II HDACs), 29 μl enzyme buffer (15 mM Tris HCl pH 8.1, 0.25 mM EDTA, 250 mM NaCl, 10% v:v glycerol) and 1 μl test compound are added to a well of a 96 well microtiter plate and reaction started by addition of 3 μl substrate (Ac-NH-GGK(Ac)-AMC; final concentration 25 μM and final volume […]). […] After incubation at room temperature for further 40 min, fluorescence is measured using a Wallac Victor 1420 multilabel counter (Ex 355 nm, Em 460 nm) for quantification of AMC (7-amino-4-methylcoumarin) generated by trypsine cleavage of the deacetylated peptide. […] The corresponding pIC50 values of the compounds for HDAC inhibitory activity are determined from the concentration-effect curves by means of non-linear regression (Graphpad Prism software).
(§3) The HDAC1, HDAC3 and HDAC6 enzymatic assays are done with slight modifications with recombinant FLAG-HDAC1 and FLAG-HDAC6 proteins isolated from HEK293 cell lysates or recombinant FLAG-HDAC3 isolated from insect cells, respectively. The HDAC8 enzymatic assay using recombinant FLAG-HDAC8 isolated from insect cells is done with a different substrate. About 4.5 ng/well FLAG-HDAC1 and 3.1 ng/well FLAG-HDAC6 (dependent on batches and specific activity) are incubated with 6 μM or 10 μM Ac-NH-GGK(Ac)-AMC substrate, respectively, for 3 h at 30° C. About 1.7 ng/well FLAG-HDAC3 is incubated with 6 μM Ac-NH-GGK(Ac)-AMC substrate for 2 h at 30° C., while approximately 130 ng/well FLAG-HDAC8 is incubated with 50 μM Ac-RHK(Ac)K(Ac)-AMC substrate for 3 h at 30° C. Termination of the reaction and all further steps are done as described for HeLa cell nuclear extracts as a source for HDAC enzymatic activity. The corresponding pIC50 values of the compounds for HDAC1, HDAC3, HDAC6 and HDAC8 inhibitory activity are determined from the concentration-effect curves by means of non-linear regression.

For test [2], the target named is T2, rHDAC8 (Homo sapiens, UniProt Q9BY41).
T2 construct: FLAG; made in house; host or cells: baculovirus-infected Sf21 insect cells
T2 sequence (Q9BY41 1-377): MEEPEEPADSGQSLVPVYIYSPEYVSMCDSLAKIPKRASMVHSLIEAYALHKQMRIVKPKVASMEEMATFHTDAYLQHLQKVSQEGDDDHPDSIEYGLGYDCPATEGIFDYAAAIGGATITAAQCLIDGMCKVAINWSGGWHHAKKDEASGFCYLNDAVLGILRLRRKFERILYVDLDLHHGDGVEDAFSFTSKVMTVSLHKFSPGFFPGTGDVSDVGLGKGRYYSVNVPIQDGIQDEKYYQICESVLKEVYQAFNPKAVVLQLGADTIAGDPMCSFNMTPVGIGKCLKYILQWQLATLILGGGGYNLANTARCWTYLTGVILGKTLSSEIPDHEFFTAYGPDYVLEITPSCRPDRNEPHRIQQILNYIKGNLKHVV
The test can be described thus: rHDAC8 enzymatic assay (recombinant FLAG-HDAC8). Type of test: biochemical. Particulars: FLAG-HDAC8 from insect cells; 50 μM Ac-RHK(Ac)K(Ac)-AMC, 3 h at 30° C.; read-out: rHDAC8 [pIC50] (converted).
Text: as §1, §2, §3

Consider `O=C(NO)c1ccc2c(c1)CCN(C(=O)Cc1c[nH]c3ccccc13)C2` [Example 1, N-Hydroxy-2-(indol-3-ylacetyl)-1,2,3,4-tetrahydroisoquinoline-6-carboxamide hydrochloride], for which the IC50 is 1 to 100 nM in test [1] and 1000 to 10000 nM in test [2].

With `O=C(NO)c1ccc2c(c1)CCN(C(=O)C1CCC1)C2` [Example 3, 2-(Cyclobutylcarbonyl)-N-hydroxy-1,2,3,4-tetrahydroisoquinoline-6-carboxamide], the IC50 in test [1] is 1 to 100 nM; in test [2], 1000 to 10000 nM.

For the molecule `CNC(=O)N1CCc2cc(C(=O)NO)ccc2C1` [Example 4, N6-Hydroxy-N2-methyl-3,4-dihydroisoquinoline-2,6(1H)-dicarboxamide], the IC50 in test [1] is 1 to 100 nM; in test [2] it was 1000 to 10000 nM.

With `COCCCNC(=O)N1CCc2cc(C(=O)NO)ccc2C1` [Example 5, N6-Hydroxy-N2-(3-methoxypropyl)-3,4-dihydroisoquinoline-2,6(1H)-dicarboxamide], the IC50 in test [1] was 1 to 100 nM; in test [2] it was 1000 to 10000 nM.

Consider `COCCCOC(=O)N1CCc2cc(C(=O)NO)ccc2C1` [Example 6, 3-Methoxypropyl-6-(hydroxycarbamoyl)-3,4-dihydroisoquinoline-2(1H)-carboxylate], for which the IC50 was 100 to 1000 nM in test [1] and 1000 to 10000 nM in test [2].

For the molecule `O=C(NO)c1ccc2c(c1)CCN(C(=O)CCc1cccnc1)C2` [Example 7, N-Hydroxy-2-(3-pyridin-3-ylpropanoyl)-1,2,3,4-tetrahydroisoquinoline-6-carboxamide hydrochloride], the IC50 in test [1] is 1 to 100 nM; in test [2], 1000 to 10000 nM.

Turning to `O=C(NO)c1ccc2c(c1)CCN(C(=O)Cc1cccnc1)C2` [Example 8, N-Hydroxy-2-(pyridin-3-ylacetyl)-1,2,3,4-tetrahydroisoquinoline-6-carboxamide hydrochloride], the IC50 was 100 to 1000 nM in test [1] and 1000 to 10000 nM in test [2].

Take `CN(C)CCCC(=O)N1CCc2cc(C(=O)NO)ccc2C1` [Example 9, 2-[4-(Dimethylamino)butanoyl]-N-hydroxy-1,2,3,4-tetrahydroisoquinoline-6-carboxamide hydrochloride]: the IC50 was 100 to 1000 nM in test [1] and 1000 to 10000 nM in test [2].

In the case of `Cc1nccn1CC(=O)N1CCc2cc(C(=O)NO)ccc2C1` [Example 10, N-Hydroxy-2-[(2-methyl-1H-imidazol-1-yl)acetyl]-1,2,3,4-tetrahydroisoquinoline-6-carboxamide hydrochloride], the IC50 in test [1] was 100 to 1000 nM; in test [2], 1000 to 10000 nM.

As for `COCCOCC(=O)N1CCc2cc(C(=O)NO)ccc2C1` [Example 11, N-Hydroxy-2-[(2-methoxyethoxy)acetyl]-1,2,3,4-tetrahydroisoquinoline-6-carboxamide], the IC50 was 100 to 1000 nM in test [1] and 1000 to 10000 nM in test [2].

With `CC(=O)N1CCc2cc(C(=O)NO)ccc2C1` [Example 12, 2-Acetyl-N-hydroxy-1,2,3,4-tetrahydroisoquinoline-6-carboxamide], the IC50 in test [1] was 100 to 1000 nM; in test [2], 1000 to 10000 nM.

As to `O=C(NO)c1ccc2c(c1)CCN(C(=O)C1CCOC1)C2` (stereo not shown) [Example 13, N-Hydroxy-2-(tetrahydrofuran-3-ylcarbonyl)-1,2,3,4-tetrahydroisoquinoline-6-carboxamide], the IC50 is 100 to 1000 nM in test [1] and 1000 to 10000 nM in test [2].

With `COc1ccc2[nH]c(C(=O)N3CCc4cc(C(=O)NO)ccc4C3)cc2c1` [Example 15, N-Hydroxy-2-[(5-methoxy-1H-indol-2-yl)carbonyl]-1,2,3,4-tetrahydroisoquinoline-6-carboxamide], the IC50 is 1 to 100 nM in test [1] and 1000 to 10000 nM in test [2].

For `O=C(NO)c1ccc2c(c1)CCN(C(=O)C1CC1)C2` [Example 16, N-Hydroxy-2-(cyclopropylcarbonyl)-1,2,3,4-tetrahydroisoquinoline-6-carboxamide], the IC50 in test [1] was 1 to 100 nM; in test [2], 1000 to 10000 nM.

With `CC#CC(=O)N1CCc2ccc(C(=O)NO)cc2C1` [Example 17, 2-But-2-ynoyl-N-hydroxy-1,2,3,4-tetrahydroisoquinoline-7-carboxamide], the IC50 was 1 to 100 nM in test [1] and 10 to 1000 nM in test [2].

`O=C(NO)c1ccc2c(c1)CN(C(=O)Cc1c[nH]c3ccccc13)CC2` [Example 18, N-Hydroxy-2-(1H-indol-3-ylacetyl)-1,2,3,4-tetrahydroisoquinoline-7-carboxamide]: the IC50 is 1 to 100 nM in test [1] and 10 to 1000 nM in test [2].

For the molecule `O=C(NO)c1ccc2c(c1)CN(C(=O)Cc1cccnc1)CC2` [Example 19, N-Hydroxy-2-(pyridin-3-ylacetyl)-1,2,3,4-tetrahydroisoquinoline-7-carboxamide hydrochloride], the IC50 in test [1] is 1 to 100 nM; in test [2], 10 to 1000 nM.

`O=C(NO)c1ccc2c(c1)CN(C(=O)C1CCOC1)CC2` (stereo not shown) [Example 20, N-Hydroxy-2-(tetrahydrofuran-3-ylcarbonyl)-1,2,3,4-tetrahydroisoquinoline-7-carboxamide]: the figures for the IC50 in test [1] and in test [2] were 100 to 1000 nM and 10 to 1000 nM, respectively.

In the case of `O=C(NO)c1ccc2c(c1)CN(C(=O)Cc1ccccn1)CC2` [Example 21, N-Hydroxy-2-(pyridin-2-ylacetyl)-1,2,3,4-tetrahydroisoquinoline-7-carboxamide hydrochloride], the IC50 is 1 to 100 nM in test [1] and 10 to 1000 nM in test [2].

`O=C(NO)c1ccc2c(c1)CN(C(=O)NCCc1ccccc1)CC2` [Example 22, N7-Hydroxy-N2-(2-phenylethyl)-3,4-dihydroisoquinoline-2,7(1H)-dicarboxamide]: the figures for the IC50 in test [1] and in test [2] were 1 to 100 nM and 10 to 1000 nM, respectively.
